In brackets after ≈: the same amount, converted by molar mass. Like-named read-outs stand apart in the source and are kept apart here.
Assays:
MRSA PK = molecular target: T1, MRSA PK (Staphylococcus aureus, UniProt Q6GG09); assay: MRSA PK activity, continuous LDH-coupled assay; format: biochemical, S. aureus (MRSA strain Sanger 252)
T1 construct: His tag (pET-28a(+) vector) (N); made in house; host or cells: E. coli BL-21 (DE3)
Procedure, shortened: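 Activity was tracked as the 340 nm absorbance fall from NADH oxidation via coupled LDH, at 30 °C for ≤5 min. Reactions began on adding 15 nM recombinant His-tagged S. aureus PK, with inhibitor DMSO kept ≤1%. Four-parameter dose–response fitting gave IC50.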

S. aureus ATCC 29213 = assay: In vitro susceptibility, broth microdilution MIC; format: cell-based, Staphylococcus aureus
Procedure, shortened: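 The MIC against S. aureus 29213 was determined by CLSI 2-fold serial broth microdilution in Mueller Hinton broth. Plates were incubated for 18–24 h at 37 °C and read at OD600 with background subtracted. The MIC was the lowest concentration giving complete growth inhibition versus compound-free wells.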

[1] = system: A. baumannii (ATCC 19606); assay: Broth microdilution MIC; format: cell-based; conditions: Acinetobacter baumannii
Experimental: (§1) The antimicrobial activities of PK inhibitor candidates were determined using the 96-well microtiter standard 2-fold serial broth microdilution method as described by CLSI (formerly NCCLS) with the various gram-positive and gram-negative bacteria species mentioned above. Bacteria from a single colony were grown, overnight in either BHI Broth (VRE), mueller hinton broth (S. aureus 29213; MRSA USA400) or L-broth (E. coli, P. aeruginosa, S. typhimuriu, K. Pneumonia and A. baumannii). […] Culture plates were incubated for 18-24 h at 37° C., and optical density at 600 nm (OD600) was measured using a Benchmark Plus™ microplate spectrophotometer (Bio-Rad™). The absorbance control values for the series containing CAMHB and inhibitor were subtracted as background from the corresponding infected wells. The MIC was defined as the lowest concentration of test compound leading to complete inhibition of cell growth in relationship to compound-free control wells as determined by optical density. […] All assays were run in triplicate (Tables 1-6) or duplicate. Experiments were replicated at least twice to verify reproducibility using the above conditions.
(§2) The antimicrobial activity of selected compounds against the gram negative bacteria Klebsiella pneumoniae, Acinetobacter baumannii, E. coli, Pseudomonas aeruginosa and Salmonella typhimurium, as well as additional gram positive bacteria, including drug-resistant strains, was tested according to the procedures provided under “General Methodologies” above.

K. pneumoniae (C238) = assay: Broth microdilution MIC; format: cell-based; conditions: Klebsiella pneumoniae, read-out: MIC (μg/mL) A
Experimental: as §1, §2

MRSA MW2 (USA400) = assay: Broth microdilution MIC; format: cell-based; conditions: Staphylococcus aureus, read-out: MIC (μg/mL) G
Experimental: as §1, §2

P. aeruginosa (PA01) = assay: Broth microdilution MIC; format: cell-based; conditions: Pseudomonas aeruginosa
Experimental: as §1, §2

S. typhimurium (SL 1344) = assay: Broth microdilution MIC; format: cell-based; conditions: Salmonella enterica
Experimental: as §1, §2

E. coli (DAS 1-IMP) = assay: microbe, parasite or virus in culture; format: cell-based, Escherichia coli; conditions: for MIC: Escherichia coli, read-out: MIC (μg/mL) C, E. coli (DAS 1-IMP)
Experimental: as §1, §2

VRE#2 (2010A) = assay: Broth microdilution MIC; format: cell-based, vancomycin-resistant Enterococcus; conditions: Enterococcus, read-out: MIC (μg/mL) F
Experimental: as §1, §2

S. pyogenes (ATCC700294) = assay: Broth microdilution MIC; format: cell-based; conditions: Streptococcus pyogenes
Experimental: as §1, §2

S. aureus ATCC 29123 = assay: Neutropenic mouse Staphylococcus aureus thigh infection model; format: in vivo; conditions: vancomycin control, 10 mg/kg IP at 2 and 8 h, 24 h endpoint
Experimental: The antimicrobial activity of compound 178 against S. aureus ATCC 29123 was tested in vivo using the neutropenic mouse Staphylococcus aureus thigh infection model. […] Animals were individually monitored for adverse reactions for 30 min post-infection. […] Vancomycin was administered as a solution in PBS. The test compounds were administered as outlined in Table 12 at 2 and 8 hours post-infection and animals were individually monitored for adverse reactions for 30 min after each injection. All animals were then monitored hourly from 20 hours post infection to the endpoint (t=24 hr post infection). At the indicated timepoint, animals were sacrificed and the injected thigh collected. Quantitative enumeration of bacterial load was determined by plating serial dilutions from homogenized thigh muscles. Homogenized muscle was in a total of 2 mL volume, from which a 1 in 10 dilution was prepared (100 μL into 900 μL saline). From this a series of dilutions were prepared and plated on Mueller Hinton agar plates. […] At the end of this time colony counts were determined and the final CFU per mL calculated.

[2] = Staphylococcus aureus, ATCC29213, S. aureus (ATCC29213), Table 9, read-out: MIC (μg/mL) H
[3] = ATCC19606, A. baumannii (ATCC 19606), read-out: MIC (μg/mL) B
[4] = Staphylococcus aureus, ATCC29213, Table 8, tested at least in duplicate, differing values all given, read-out: MIC
[5] = Table 8, tested at least in duplicate, differing values all given
[6] = Staphylococcus aureus, ATCC29213, Tables 1-6 and text, minimum concentration to give >98% inhibition of growth, read-out: MIC

T1 sequence (Q6GG09 whole entry): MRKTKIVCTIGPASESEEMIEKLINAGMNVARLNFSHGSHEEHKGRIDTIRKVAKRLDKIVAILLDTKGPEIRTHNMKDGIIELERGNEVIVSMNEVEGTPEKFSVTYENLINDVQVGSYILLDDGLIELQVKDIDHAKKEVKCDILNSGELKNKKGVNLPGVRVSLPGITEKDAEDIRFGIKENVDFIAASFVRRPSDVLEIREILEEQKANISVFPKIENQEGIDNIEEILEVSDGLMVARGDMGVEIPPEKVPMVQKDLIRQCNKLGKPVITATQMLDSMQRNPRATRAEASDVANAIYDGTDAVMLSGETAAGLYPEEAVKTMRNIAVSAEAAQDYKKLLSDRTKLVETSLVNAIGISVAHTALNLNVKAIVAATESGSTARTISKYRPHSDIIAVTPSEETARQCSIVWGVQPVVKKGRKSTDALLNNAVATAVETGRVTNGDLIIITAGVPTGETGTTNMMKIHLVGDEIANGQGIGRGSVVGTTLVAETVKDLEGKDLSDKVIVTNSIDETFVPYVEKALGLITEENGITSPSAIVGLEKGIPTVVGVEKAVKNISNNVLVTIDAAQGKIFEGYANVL

SMILES | IC50 (MRSA PK) | MIC (S. aureus ATCC 29213; [2]) | MIC [1, 3] | MIC (K. pneumoniae (C238); K. pneumoniae (C238)) | MIC (MRSA MW2 (USA400); MRSA MW2 (USA400)) | MIC (P. aeruginosa (PA01)) | MIC (S. typhimurium (SL 1344)) | MIC (E. coli (DAS 1-IMP)) | MIC (VRE#2 (2010A); VRE#2 (2010A)) | MIC (S. aureus ATCC 29213; [4]) | MIC (S. aureus ATCC 29213; [5]) | also measured
O=C(O)c1c(/C=C/c2ccc(Cl)cc2)[nH]c2cc(Br)ccc12 [Compound 123, (E)-6-Bromo-2-(4-chlorostyryl)-1H-indole-3-carboxylic acid] | 100 to 1000 nM | 16 µg/mL (≈ 42.5 µM) | 64 µg/mL (≈ 170 µM) | 32 µg/mL (≈ 85 µM) | 32 µg/mL (≈ 85 µM) | > 64 µg/mL | > 64 µg/mL | 64 µg/mL (≈ 170 µM) | 32 µg/mL (≈ 85 µM) | – | – | –
O=C(c1c(/C=C/c2ccc(Cl)cc2)[nH]c2cc(Br)ccc12)C(F)(F)F [Compound 168, (E)-1-(6-Bromo-2-(4-chlorostyryl)-1H-indol-3-yl)-2,2,2-trifluoroethanone] | 100 to 1000 nM | 2 µg/mL (≈ 4.67 µM) | – | – | 0.5 µg/mL (≈ 1.17 µM) | – | – | – | 1 µg/mL (≈ 2.33 µM) | 1 µg/mL (≈ 2.33 µM) | 2 µg/mL (≈ 4.67 µM) | –
COc1cccc(OC)c1C(=O)N[C@@H]1C(=O)N2[C@@H]1SC(C)(C)[C@@H]2C(=O)O [Methicillin, methicillin, reference compound] | – | 2 µg/mL (≈ 5.26 µM) | > 64 µg/mL | 4 µg/mL (≈ 10.5 µM) | 32 µg/mL (≈ 84.1 µM) | – | – | – | 64 µg/mL (≈ 168 µM) | – | – | MIC (S. pyogenes (ATCC700294)): 1 µg/mL (≈ 2.63 µM)
COC(=O)c1c(/C=C/c2ccc(Cl)cc2)[nH]c2cc(Br)ccc12 [Compound 124, (E)-methyl 6-bromo-2-(4-chlorostyryl)-1H-indole-3-carboxylate] | < 50 nM | 2 µg/mL (≈ 5.12 µM) | > 64 µg/mL | 2 µg/mL (≈ 5.12 µM) | 2 µg/mL (≈ 5.12 µM) | > 64 µg/mL | > 64 µg/mL | > 64 µg/mL | 8 µg/mL (≈ 20.5 µM) | 4 µg/mL (≈ 10.2 µM) | 2 µg/mL (≈ 5.12 µM) | –
O=C(c1c(CCc2ccc(Cl)cc2)[nH]c2cc(Br)ccc12)C(F)(F)F [Compound 167, 1-(6-Bromo-2-(4-chlorophenethyl)-1H-indol-3-yl)-2,2,2-trifluoroethanone] | 100 to 1000 nM | 1.5 µg/mL (≈ 3.48 µM) | > 64 µg/mL | 1 µg/mL (≈ 2.32 µM) | – | > 64 µg/mL | > 64 µg/mL | 4 µg/mL (≈ 9.29 µM) | 1 µg/mL (≈ 2.32 µM) | 2 µg/mL (≈ 4.64 µM) | 1 µg/mL (≈ 2.32 µM) | MIC (S. pyogenes (ATCC700294)): 2 µg/mL (≈ 4.64 µM); MIC (μg/mL) C (E. coli (DAS 1-IMP); E. coli (DAS 1-IMP)): 8 µg/mL (≈ 18.6 µM)
CN[C@H](CC(C)C)C(=O)N[C@H]1C(=O)N[C@@H](CC(N)=O)C(=O)N[C@H]2C(=O)N[C@H]3C(=O)N[C@H](C(=O)N[C@H](C(=O)O)c4cc(O)cc(O)c4-c4cc3ccc4O)[C@H](O)c3ccc(c(Cl)c3)Oc3cc2cc(c3O[C@@H]2O[C@H](CO)[C@@H](O)[C@H](O)[C@H]2O[C@H]2C[C@](C)(N)[C@H](O)[C@H](C)O2)Oc2ccc(cc2Cl)[C@H]1O [Vancomycin, reference compound] | – | – | – | – | – | – | – | – | – | – | – | MIC (S. aureus ATCC 29213; Staphylococcus aureus, ATCC29213): 1 µg/mL (≈ 0.69 µM); MIC (S. aureus ATCC 29213; Staphylococcus aureus, ATCC29213, read-out: MIC (μg/mL) H): 1 µg/mL (≈ 0.69 µM); MIC ([1]; ATCC19606, read-out: MIC (μg/mL) B): 64 µg/mL (≈ 44.2 µM); MIC (K. pneumoniae (C238)): 4 µg/mL (≈ 2.76 µM); MIC (MRSA MW2 (USA400)): 1 µg/mL (≈ 0.69 µM); MIC (VRE#2 (2010A); VRE): 64 µg/mL (≈ 44.2 µM); median CFU/thigh (S. aureus ATCC 29123): 1.91×10^3 CFU/thigh
Brc1ccc2c(c1)cc(-c1cc3ccc(Br)cc3[nH]1)n2CCN1CCCCC1 [Compound 72, 5,6′-dibromo-1-(2-(piperidin-1-yl)ethyl)-1H,1′H-2,2′-biindole] | 3.7 nM | – | – | – | – | – | – | – | – | – | – | MIC (S. aureus ATCC 29213; [6]): > 64 µg/mL; melting point: 102 to 104 °C
Brc1ccc2[nH]c(CCc3cc4ccc(Br)cc4[nH]3)cc2c1 [Compound 28b, 6-bromo-2-(2-(5-bromo-1H-indol-2-yl)ethyl)-1H-indole] | – | – | – | – | – | – | – | – | – | – | – | IC50 (MRSA PK; Tables 1-6, 2 mM ADP, 10 mM PEP, 15 nM PK, read-out: IC50): 6.3 nM; MIC (S. aureus ATCC 29213; [6]): > 64 µg/mL; melting point: 208 to 210 °C
